From the supplement of paper PMC10307832

What was measured:
Assay in all cases: relative viability (nuclei count vs DMSO), 5 days (fraction); higher = more cells survive
QS11 + Palbociclib = compound: C1CC2=C(C1)C=C(C=C2)OC3=NC(=C4C(=N3)N(C=N4)CC5=CC=C(C=C5)C6=CC=CC=C6)N[C@@H](CC7=CC=CC=C7)CO [QS11] + CC(=O)c1c(C)c2cnc(Nc3ccc(N4CCNCC4)cn3)nc2n(C2CCCC2)c1=O [Palbociclib] (partner 0.5 µM)
In short: (§1)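 Cells from lung cancer lines were seeded into 1536-well plates and, one day later, dosed by pin tool. Treatments were either a single drug or a fixed dose of an anchor drug with five library-drug doses (not always all listed) in √10 steps. After 5 days, nuclei were stained in a one-step fixation (final 0.05% Triton X-100, 1% formaldehyde, 1 ug/ml Hoechst) and counted on 4× images, and relative viability is the treated-to-vehicle nuclei ratio, as the median of duplicate plates.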

AZ628 + Trametinib = compound: CC1=C(C=C(C=C1)NC(=O)C2=CC(=CC=C2)C(C)(C)C#N)NC3=CC4=C(C=C3)N=CN(C4=O)C [AZ628] + CC(=O)Nc1cccc(-n2c(=O)n(C3CC3)c(=O)c3c(Nc4ccc(I)cc4F)n(C)c(=O)c(C)c32)c1 [Trametinib] (partner 0.02 µM)
In short: as §1

AZ628 + Alpelisib = compound: CC1=C(C=C(C=C1)NC(=O)C2=CC(=CC=C2)C(C)(C)C#N)NC3=CC4=C(C=C3)N=CN(C4=O)C [AZ628] + Cc1nc(NC(=O)N2CCC[C@H]2C(N)=O)sc1-c1ccnc(C(C)(C)C(F)(F)F)c1 [Alpelisib] (partner 2 µM)
In short: as §1

[1] = compound: C[As](C)SC[C@H](NC(=O)CC[C@H](N)C(=O)O)C(=O)NCC(=O)O [Darinaparsin] + CCNC(=O)c1noc(-c2cc(C(C)C)c(O)cc2O)c1-c1ccc(CN2CCOCC2)cc1 [Luminespib] (partner 0.01 µM)
In short: as §1

| Cell Line | relative viability (QS11 + Palbociclib; first compound 0.08 µM) | relative viability (QS11 + Palbociclib; first compound 0.253 µM) | relative viability (QS11 + Palbociclib; first compound 0.8 µM) | relative viability (QS11 + Palbociclib; first compound 2.53 µM) | relative viability (QS11 + Palbociclib; first compound 8 µM) | relative viability (AZ628 + Trametinib; first compound 0.08 µM) | relative viability (AZ628 + Trametinib; first compound 0.253 µM) | relative viability (AZ628 + Trametinib; first compound 0.8 µM) | relative viability (AZ628 + Trametinib; first compound 2.53 µM) | relative viability (AZ628 + Trametinib; first compound 8 µM) | relative viability (AZ628 + Alpelisib; first compound 0.08 µM) | relative viability (AZ628 + Alpelisib; first compound 0.253 µM) | relative viability (AZ628 + Alpelisib; first compound 0.8 µM) | relative viability (AZ628 + Alpelisib; first compound 2.53 µM) | relative viability (AZ628 + Alpelisib; first compound 8 µM) | relative viability ([1]; first compound 0.08 µM) | relative viability ([1]; first compound 0.8 µM) | relative viability ([1]; first compound 2.53 µM) | relative viability ([1]; first compound 8 µM) |
| --- | --- | --- | --- | --- | --- | --- | --- | --- | --- | --- | --- | --- | --- | --- | --- | --- | --- | --- | --- |
| UMC-11 | 0.307 | 0.343 | 0.378 | 0.343 | 0.337 | 0.713 | 0.764 | 0.734 | 0.691 | 0.693 | 1 | 0.987 | 0.949 | 1.13 | 1.1 | 1.16 | 0.994 | 1.08 | 1.22 |
| LCLC-103H | 0.498 | 0.506 |  | 0.535 | 0.481 | 0.58 | 0.586 | 0.657 | 0.565 | 0.584 | 0.924 | 1.07 | 0.981 | 0.986 | 0.919 | 1.14 | 0.876 | 0.882 | 1.22 |
| LU99A | 0.421 | 0.469 | 0.437 | 0.4 | 0.395 | 0.296 | 0.277 | 0.245 | 0.244 | 0.288 | 0.456 | 0.478 | 0.628 | 0.554 | 0.216 | 0.228 | 0.24 | 0.241 | 0.222 |
| LXF-289 | 0.639 | 0.634 | 0.502 | 0.564 | 0.621 | 0.603 | 0.477 | 0.472 | 0.525 | 0.38 | 1.01 | 1.01 | 0.963 | 0.961 | 0.626 | 0.773 | 0.499 | 0.578 | 1.06 |
| EPLC-272H |  | 0.315 | 0.31 | 0.305 | 0.31 | 0.26 | 0.207 | 0.222 | 0.189 | 0.17 | 0.951 | 0.85 | 0.892 | 0.908 | 0.641 |  | 0.176 | 0.328 | 0.191 |
| LOU-NH91 | 0.527 | 0.536 | 0.513 | 0.58 | 0.629 | 0.795 | 0.787 | 0.713 | 0.726 | 0.668 | 0.714 | 0.747 | 0.691 | 0.687 | 0.577 | 0.407 | 0.31 | 0.306 | 0.345 |
| HCC-44 | 1.07 | 0.998 | 0.732 | 0.901 | 0.866 | 0.909 | 0.837 | 0.566 | 0.804 | 0.519 | 0.754 | 0.796 | 0.801 | 0.68 | 0.705 | 1.47 | 1.12 | 0.954 | 0.804 |
| NCI-H1651 | 0.542 | 0.53 | 0.4 | 0.48 | 0.581 | 0.848 | 0.83 | 0.858 | 0.826 | 0.77 | 1.12 | 1.02 | 0.84 | 0.884 | 0.995 | 0.886 | 0.831 | 0.926 | 1.16 |
| NCI-H1915 | 0.53 | 0.644 |  | 0.5 | 0.486 | 0.139 | 0.128 | 0.109 | 0.144 | 0.0954 | 1.09 | 1.04 | 0.911 | 0.708 | 0.564 | 1.04 | 0.795 | 0.625 | 0.827 |
